Assay results published in ChEMBL document CHEMBL3588781, “HPLC-NMR and HPLC-MS Profiling and Bioassay-Guided Identification of Secondary Metabolites from the Australian Plant Haemodorum spicatum” (2015).
Activity calls are given as the source filed them. The calls are words filed in the database; no cut-off is given here.

How the values were obtained:
[1] = test system: Streptococcus pyogenes; assay: Antimicrobial activity against Streptococcus pyogenes 345/1 assessed as microbial growth inhibition at 1 mg/ml incubated overnight at 37 degC; assay type: functional; settings: for zone of inhibition at 1000 µg/mL: read-out: IZ
[2] = test system: Escherichia coli; assay: Antimicrobial activity against Escherichia coli ATCC 25922 assessed as microbial growth inhibition at 1 mg/ml incubated overnight at 37 degC; assay type: functional; settings: for zone of inhibition at 1000 µg/mL: read-out: IZ
[3] = test system: Pseudomonas aeruginosa; assay: Antimicrobial activity against Pseudomonas aeruginosa ATCC 27853 assessed as microbial growth inhibition at 1 mg/ml incubated overnight at 37 degC; assay type: functional; settings: for zone of inhibition at 1000 µg/mL: read-out: IZ
[4] = test system: Candida albicans; assay: Antimicrobial activity against Candida albicans ATCC 10231 assessed as microbial growth inhibition at 1 mg/ml incubated overnight at 37 degC; assay type: functional, organism-based
[5] = test system: Staphylococcus aureus; assay: Antimicrobial activity against Staphylococcus aureus ATCC 25923 assessed as microbial growth inhibition at 1 mg/ml incubated overnight at 37 degC; assay type: functional; settings: for zone of inhibition at 1000 µg/mL: read-out: IZ
[6] = test system: Staphylococcus aureus; assay: Antimicrobial activity against methicillin-resistant Staphylococcus aureus 344/2-32 assessed as microbial growth inhibition at 1 mg/ml incubated overnight at 37 degC; assay type: functional; settings: for zone of inhibition at 1000 µg/mL: read-out: IZ

Row | SMILES | zone of inhibition at 1000 µg/mL [1] [mm] | zone of inhibition at 1000 µg/mL [2] [mm] | zone of inhibition at 1000 µg/mL [3] [mm] | inhibition zone (IZ) [4] | inhibition zone (IZ) [5] | inhibition zone (IZ) [6] | inhibition zone (IZ) [2] | zone of inhibition at 1000 µg/mL [5] [mm] | zone of inhibition at 1000 µg/mL [6] [mm] | inhibition zone (IZ) [1] | inhibition zone (IZ) [3]
1 | COc1cc2cc(O)c3oc4ccccc4c4ccc(c1=O)c2c34 | 2 | 1 | 5 | inactive | inactive | inactive | – | – | – | – | –
2 | O=c1ccc2cc(O)c3oc4ccccc4c4ccc1c2c34 | 1 | – | 3 | inactive | inactive | inactive | inactive | – | – | – | –
3 | COc1cc(OC)c2ccc(-c3ccccc3)c3c2c1C=C(O)C3=O | 1 | 1 | 5 | inactive | – | – | – | 1 | 1 | – | –
4 | COc1cc2cc(OC)c3oc4ccccc4c4ccc(c1=O)c2c34 | 2 | – | 4 | inactive | inactive | inactive | inactive | – | – | – | –
5 | COC1=Cc2ccc(OC)c3ccc(-c4ccccc4)c(c23)C1=O | 1 | 1 | 3 | inactive | inactive | inactive | – | – | – | – | –
6 | COC1=Cc2cc(=O)oc3ccc(-c4ccccc4)c(c23)C1=O | – | 1 | – | inactive | inactive | inactive | – | – | – | inactive | inactive
7 | COC(=O)Nc1nc2ccccc2[nH]1 | – | – | – | inactive | – | – | – | – | – | – | –
8 | CC1(C)S[C@@H]2[C@H](NC(=O)[C@H](N)c3ccccc3)C(=O)N2[C@H]1C(=O)O [AMPICILLIN] | 20 | – | 2 | – | – | – | inactive | 15 | 3 | – | –
9 | COC1=Cc2cc(O)c(OC)c3ccc(-c4ccccc4)c(c23)C1=O | 1 | 1 | 1 | inactive | – | inactive | – | 1 | – | – | –
10 | COC1OC(=O)c2ccc(-c3ccccc3)c3c(O)c(O)cc1c23 (stereo unspecified) | 1 | 1 | 1 | inactive | inactive | inactive | – | – | – | – | –
11 | COC1=Cc2cc(OC)c(OC)c3ccc(-c4ccccc4)c(c23)C1=O | 1 | 1 | 1 | inactive | inactive | – | – | – | 1 | – | –
12 | COc1cc2ccc(=O)c3ccc4c5ccccc5oc1c4c23 | 3 | – | 3 | inactive | – | – | inactive | 1 | 1 | – | –
